The assay deals with c-MET. The assay is described as follows: c-MET protein degradation (Simple Western), MKN-45 cells. The class given is cell-based, human. The settings on record: MKN-45 gastric cancer cells, c-MET overexpressing; 24 hours. As for the experimental part: In order to assess the resolution of the compound of the present invention for c-MET expressed in cells, cells were dispensed in a 12-well plate at a concentration of 2×10^5 cells/well, and then gastric cancer cell lines were treated with samples for 24 hours and lung cancer cell lines were treated for 48 hours. Cell lysates were collected using a scraper on ice, centrifuged at 4° C. 15,000 rpm for 30 min to obtain a protein-containing supernatant. Protein expression was then measured using the Simple Western Automated Western Blot System Abby instrument using 3 μg of protein for each sample. SDS and heat-induced denaturation proteins were separated by molecular weight, attached to capillary, reacted with anti-c-MET or anti-GAPDH antibodies, which are primary antibodies, and then reacted with HRP-conjugated secondary antibodies, and analyzed the protein expression signal with compass software. Protein expression was normalized based on the expression value of GAPDH, and protein development in each sample was measured as a percentage (%) based on 100% of samples treated with 0.1% DMSO carriers, and DC50 (concentration of a compound where 50% protein inhibition is achieved) was calculated from the change in protein expression amount due to compound treatment.

The term DC50 denotes the concentration giving 50% degradation. The low end stands for a more potent degrader, the high end for a less potent degrader.

Each structure is given as a SMILES string.

With `N#Cc1cccc(-c2ccc(=O)n(Cc3cccc(-c4ncc(OCC5CCN(C(=O)CCCCN6CCN(c7ccc8c(=O)n(C9CCC(=O)NC9=O)ncc8c7)CC6)CC5)cn4)c3)n2)c1` (stereo not shown) [ICT-0001201, 3-(1-{[3-(5-{[1-(5-{4-[2-(2,6-dioxopiperidin-3-yl)-1-oxo-1,2-dihydropetalazine-6-yl]piperazine-1-yl}pentanoyl)piperidine-4-il]methoxy}pyrimidine-2-yl)phenyl]methyl}6-oxo-1,6-dihydropyridazine-3-yl)benzonitrile], the DC50 is less than 100 nM.

In the case of `Cc1nn(C2CCC(=O)NC2=O)c(=O)c2cc(F)c(N3CCN(CC4CCN(C(=O)CN5CCC(COc6cnc(-c7cccc(Cn8nc(-c9cccc(C#N)c9)ccc8=O)c7)nc6)CC5)CC4)CC3)cc12` (stereo not shown) [ICT-0001204], the DC50 was less than 100 nM.

Take `N#Cc1cccc(-c2ccc(=O)n(Cc3cccc(-c4ncc(OCC5CCN(CC(=O)NCCCC#Cc6ccc7c(=O)n(C8CCC(=O)NC8=O)ncc7c6)CC5)cn4)c3)n2)c1` (stereo not shown) [ICT-0001205]: the DC50 is less than 100 nM.

Compound `N#Cc1cccc(-c2ccc(=O)n(Cc3cccc(-c4ncc(OCC5CCN(CC(=O)NCCCCCc6ccc7c(=O)n(C8CCC(=O)NC8=O)ncc7c6)CC5)cn4)c3)n2)c1` (stereo not shown) [ICT-0001206] came in with a DC50 of less than 100 nM.

In turn, `Cc1nn(C2CCC(=O)NC2=O)c(=O)c2ccc(N3CCC(CN4CCN(CC(=O)N5CCC(COc6cnc(-c7cccc(Cn8nc(-c9cccc(C#N)c9)ccc8=O)c7)nc6)CC5)CC4)CC3)cc12` (stereo not shown) [ICT-0001213] gave a DC50 of less than 100 nM.

`Cc1nn(C2CCC(=O)NC2=O)c(=O)c2cc(N3CCN(CCCCC(=O)N4CCC(COc5cnc(-c6cccc(Cn7nc(-c8cccc(C#N)c8)ccc7=O)c6)nc5)CC4)CC3)ccc12` (stereo not shown) [ICT-0001217] returned a DC50 of less than 100 nM.

Compound `N#Cc1cccc(-c2ccc(=O)n(Cc3cccc(-c4ncc(OCC5CCN(CC(=O)N6CCN(c7ccc8c(=O)n(C9CCC(=O)NC9=O)ncc8c7)CC6)CC5)cn4)c3)n2)c1` (stereo not shown) [ICT-0001221] gave a DC50 of less than 100 nM.

Compound `N#Cc1cccc(-c2ccc(=O)n(Cc3cccc(-c4ncc(OCC5CCN(CCC(=O)N6CCN(c7ccc8c(=O)n(C9CCC(=O)NC9=O)ncc8c7)CC6)CC5)cn4)c3)n2)c1` (stereo not shown) [ICT-0001223] yielded a DC50 of less than 100 nM.

Consider `Cc1nn(C2CCC(=O)NC2=O)c(=O)c2ccc(N3CCN(C(=O)CCN4CCC(COc5cnc(-c6cccc(Cn7nc(-c8cccc(C#N)c8)ccc7=O)c6)nc5)CC4)CC3)cc12` (stereo not shown) [ICT-0001224], for which the DC50 was less than 100 nM.

With `Cc1nn(C2CCC(=O)NC2=O)c(=O)c2cc(N3CCN(C(=O)CCN4CCC(COc5cnc(-c6cccc(Cn7nc(-c8cccc(C#N)c8)ccc7=O)c6)nc5)CC4)CC3)ccc12` (stereo not shown) [ICT-0001225], the DC50 was less than 100 nM.

The compound `N#Cc1cccc(-c2ccc(=O)n(Cc3cccc(-c4ncc(OCC5CCN(CCCC(=O)N6CCN(c7ccc8c(=O)n(C9CCC(=O)NC9=O)ncc8c7)CC6)CC5)cn4)c3)n2)c1` (stereo not shown) [ICT-0001226, 3-(1-(3-(5-((1-(4-(4-(2-(2,6-dioxopiperidine-3-yl)-1-oxo-1,2-dihydropetalazine-6-yl)piperazine-1-il)-4-oxobutyl)piperidine-4-il)methoxy)pyrimidine-2-yl)benzyl)-6-oxo-1,6-dihydropyridazine-3-yl)benzonitrile] returned a DC50 of 100 to 1000 nM.

As for `Cc1nn(C2CCC(=O)NC2=O)c(=O)c2ccc(N3CCN(C(=O)CCCN4CCC(COc5cnc(-c6cccc(Cn7nc(-c8cccc(C#N)c8)ccc7=O)c6)nc5)CC4)CC3)cc12` (stereo not shown) [ICT-0001227, 3-(1-(3-(5-((1-(4-(4-(2-(2,6-dioxopiperidin-3-yl)-4-methyl-1-oxo-1,2-dihydropetalazine-6-yl)piperazine-1-yl)4-oxobutyl)piperidine-4-yl)methoxy)pyrimidine-2-yl)benzyl)6-oxo-1,6-dihydropyridazine-3-yl)benzonitrile], the DC50 is 100 to 1000 nM.

`Cc1nn(C2CCC(=O)NC2=O)c(=O)c2cc(N3CCN(C(=O)CCCN4CCC(COc5cnc(-c6cccc(Cn7nc(-c8cccc(C#N)c8)ccc7=O)c6)nc5)CC4)CC3)ccc12` (stereo not shown) [ICT-0001228] displayed a 50% degradation concentration (DC50) of less than 100 nM.

In turn, `Cc1nn(C2CCC(=O)NC2=O)c(=O)c2cc(N3CCC(N4CCN(C(=O)CN5CCC(COc6cnc(-c7cccc(Cn8nc(-c9cccc(C#N)c9)ccc8=O)c7)nc6)CC5)CC4)CC3)ccc12` (stereo not shown) [ICT-0001233] returned a half-maximal degradation concentration (DC50) of less than 100 nM.

`Cc1nn(C2CCC(=O)NC2=O)c(=O)c2cc(N3CCC(CN4CCN(C(=O)CN5CCC(COc6cnc(-c7cccc(Cn8nc(-c9cccc(C#N)c9)ccc8=O)c7)nc6)CC5)CC4)CC3)ccc12` (stereo not shown) [ICT-0001234] displayed a DC50 of more than 1000 nM.

Take `Cc1nn(C2CCC(=O)NC2=O)c(=O)c2ccc(N3CCN(CC4CN(C(=O)CN5CCC(COc6cnc(-c7cccc(Cn8nc(-c9cccc(C#N)c9)ccc8=O)c7)nc6)CC5)C4)CC3)cc12` (stereo not shown) [ICT-0001235]: the DC50 was less than 100 nM.

For the compound `Cc1nn(C2CCC(=O)NC2=O)c(=O)c2ccc(N3CCC(CN4CCN(C(=O)CN5CCC(COc6cnc(-c7cccc(Cn8nc(-c9cccc(C#N)c9)ccc8=O)c7)nc6)CC5)CC4)CC3)cc12` (stereo not shown) [ICT-0001236], the half-maximal degradation concentration (DC50) was less than 100 nM.

In turn, `Cc1nn(C2CCC(=O)NC2=O)c(=O)c2ccc(N3CCN(C4CCN(C(=O)CN5CCC(COc6cnc(-c7cccc(Cn8nc(-c9cccc(C#N)c9)ccc8=O)c7)nc6)CC5)CC4)CC3)cc12` (stereo not shown) [ICT-0001237] displayed a DC50 of less than 100 nM.

For the compound `Cc1nn(C2CCC(=O)NC2=O)c(=O)c2cc(N3CCC(C(=O)NCCCNC(=O)CN4CCC(COc5cnc(-c6cccc(Cn7nc(-c8cccc(C#N)c8)ccc7=O)c6)nc5)CC4)CC3)ccc12` (stereo not shown) [ICT-0001238], the 50% degradation concentration (DC50) is more than 1000 nM.

Compound `Cc1nn(C2CCC(=O)NC2=O)c(=O)c2cc(N3CCC(CN4CCN(CC(=O)N5CCC(COc6cnc(-c7cccc(Cn8nc(-c9cccc(C#N)c9)ccc8=O)c7)nc6)CC5)CC4)CC3)ccc12` (stereo not shown) [ICT-0001239] showed a DC50 of less than 100 nM.

As for `Cc1nn(C2CCC(=O)NC2=O)c(=O)c2ccc(N3CCN(c4ccc(NCC(=O)N5CCC(COc6cnc(-c7cccc(Cn8nc(-c9cccc(C#N)c9)ccc8=O)c7)nc6)CC5)cc4)CC3)cc12` (stereo not shown) [ICT-0001240, 3-(1-(3-(5-((1-((4-(4-(2-(2,6-dioxopiperidin-3-yl)-4-methyl-1-oxo-1,2-dihydropthalazine-6-yl)piperazine-1-yl)phenyl)glycyl)piperidine-4-il)methoxy)pyrimidine-2-yl)benzyl)6-oxo-1,6-dihydropyridazine-3-yl)benzonitrile], the DC50 was 100 to 1000 nM.

In turn, `Cc1nn(C2CCC(=O)NC2=O)c(=O)c2ccc(N3CCN(C(=O)CCCCN4CCC(COc5cnc(-c6cccc(Cn7nc(-c8cccc(C#N)c8)ccc7=O)c6)nc5)CC4)CC3)cc12` (stereo not shown) [ICT-0001250] yielded a DC50 of 100 to 1000 nM.

Take `Cc1nn(C2CCC(=O)NC2=O)c(=O)c2cc(N3CCN(C(=O)CCCCN4CCC(COc5cnc(-c6cccc(Cn7nc(-c8cccc(C#N)c8)ccc7=O)c6)nc5)CC4)CC3)ccc12` (stereo not shown) [ICT-0001251]: the DC50 was less than 100 nM.

`N#Cc1cccc(-c2ccc(=O)n(Cc3cccc(-c4ncc(OCC5CCN(CCCCC(=O)N6CCN(c7ccc8c(=O)n(C9CCC(=O)NC9=O)ncc8c7)CC6)CC5)cn4)c3)n2)c1` (stereo not shown) [ICT-0001252] gave a 50% degradation concentration (DC50) of less than 100 nM.

As for `Cc1nn(C2CCC(=O)NC2=O)c(=O)c2ccc(N3CCN(CC4CN(CC(=O)N5CCC(COc6cnc(-c7cccc(Cn8nc(-c9cccc(C#N)c9)ccc8=O)c7)nc6)CC5)C4)CC3)cc12` (stereo not shown) [ICT-0001253], the DC50 is less than 100 nM.

In turn, `Cc1nn(C2CCC(=O)NC2=O)c(=O)c2ccc(N3CCN(C[C@H]4CCN(CC(=O)N5CCC(COc6cnc(-c7cccc(Cn8nc(-c9cccc(C#N)c9)ccc8=O)c7)nc6)CC5)CO4)CC3)cc12` (stereo partly shown) [ICT-0001254] showed a DC50 of 100 to 1000 nM.

In turn, `Cc1nn(C2CCC(=O)NC2=O)c(=O)c2ccc(N3CCN(C4CCN(CC(=O)N5CCC(COc6cnc(-c7cccc(Cn8nc(-c9cccc(C#N)c9)ccc8=O)c7)nc6)CC5)CC4)CC3)cc12` (stereo not shown) [ICT-0001255] had a DC50 of less than 100 nM.

In turn, `Cc1nn(C2CCC(=O)NC2=O)c(=O)c2ccc(N3CCN(CC4CCN(CC(=O)N5CCC(COc6cnc(-c7cccc(Cn8nc(-c9cccc(C#N)c9)ccc8=O)c7)nc6)CC5)CC4)CC3)cc12` (stereo not shown) [ICT-0001256] displayed a DC50 of less than 100 nM.

On to `Cc1nn(C2CCC(=O)NC2=O)c(=O)c2ccc(N3CCN(C[C@@H]4CN(C(=O)CN5CCC(COc6cnc(-c7cccc(Cn8nc(-c9cccc(C#N)c9)ccc8=O)c7)nc6)CC5)CCO4)CC3)cc12` (stereo partly shown) [ICT-0001258], for which the DC50 was less than 100 nM.

In turn, `Cc1nn(C2CCC(=O)NC2=O)c(=O)c2cc(N3CCN(c4ccc(NCC(=O)N5CCC(COc6cnc(-c7cccc(Cn8nc(-c9cccc(C#N)c9)ccc8=O)c7)nc6)CC5)cc4)CC3)ccc12` (stereo not shown) [ICT-0001262, 3-(1-(3-(5-((1-((4-(4-(3-(2,6-dioxopiperidin-3-yl)-1-methyl-4-oxo-3,4-dihydropthalazine-6-yl)piperazine-1-yl)phenyl)glycy)piperidine-4-il)methoxy)pyrimidine-2-yl)benzyl)6-oxo-1,6-dihydropyridazine-3-yl)benzonitrile] returned a DC50 of less than 100 nM.

On to `Cc1nn(C2CCC(=O)NC2=O)c(=O)c2cc(N3CCC(N4CCN(CC(=O)N5CCC(COc6cnc(-c7cccc(Cn8nc(-c9cccc(C#N)c9)ccc8=O)c7)nc6)CC5)CC4)CC3)ccc12` (stereo not shown) [ICT-0001270], for which the half-maximal degradation concentration (DC50) was less than 100 nM.

Values taken from patent US20260306639A1, “DEGRADER FOR DECOMPOSING CMET PROTEIN, AND PHARMACEUTICAL COMPOSITION COMPRISING SAME” (INNOCURE THERAPEUTICS, INC., priority 2022, published 2026).
